pEC50: −log10 of the molar value. Where two headings read alike, the source gives them in different places.

What all share (assay): microbe, parasite or virus in culture
Common to all, as to assay type: cell-based

Assay [1] relates to SARS-CoV-2 B.1.617.2 (Delta). The following applies: Calu-3 cells, n = 4.
The subject of assay [2] is SARS-CoV-2 B.1.351 (Beta). The conditions noted are these: Calu-3 cells, n = 4.
The subject of assay [3] is SARS-CoV-2 B.1.1.7 (Alpha). The following applies: Calu-3 cells, n = 4.
The test system of assay [4] is SARS-CoV-2 lineage B strain (VIDO). The conditions noted are these: Severe acute respiratory syndrome coronavirus 2, 72 h; Calu-3 cells, Fig. 3d, n = 4; read-out: EC50, dsRNA staining, Variant B (VIDO-01).
The next assay deals with SARS-CoV-2 P.1 (Gamma). The following applies: Calu-3 cells, n = 4.

In the case of `CS(=O)(=O)NC(CCC(N)=O)C(=O)NC(Cc1ccccc1)C(=O)NC(CCCNC(=N)N)C(=O)c1nc2ccccc2s1` (stereo not drawn) [Compound N-0385, Ms-QFR-kbt], the pEC50 is 7.58 in assay [1] (Severe acute respiratory syndrome coronavirus 2, 72 h, Fig. 3d, read-out: EC50, dsRNA staining, Variant B.1.617.2 (Delta)); 7.86 in assay [1] (Severe acute respiratory syndrome coronavirus 2, Fig. 3c, read-out: EC50, N staining, Variant B.1.617.2 (Delta)); 7.66 in assay [2] (Severe acute respiratory syndrome coronavirus 2, 72 h, Fig. 3d, read-out: EC50, dsRNA staining, Variant B.1.351 (Beta)); 7.89 in assay [2] (Severe acute respiratory syndrome coronavirus 2, Fig. 3c, read-out: EC50, N staining, Variant B.1.351 (Beta)); 8.59 in assay [3] (Severe acute respiratory syndrome coronavirus 2, 72 h, Fig. 3d, read-out: EC50, dsRNA staining, Variant B.1.1.7 (Alpha)); 8.68 in assay [3] (Severe acute respiratory syndrome coronavirus 2, Fig. 3c, read-out: EC50, N staining, Variant B.1.1.7 (Alpha)). For the same compound, the pEC50 in assay [4] was 7.84; in the assay on SARS-CoV-2 P.1 (Gamma) (Severe acute respiratory syndrome coronavirus 2, 72 h, Fig. 3d, read-out: EC50, dsRNA staining, Variant P.1 (Gamma)), 8.27; with SARS-CoV-2 P.1 (Gamma) (Severe acute respiratory syndrome coronavirus 2, Fig. 3c, read-out: EC50, N staining, Variant P.1 (Gamma)), 8.19.

(Values after publication PMC9095466 (Nature, 2022).)
